Experimental data from US5593984A, “Cephalosporin derivatives” (Yuhan Corporation, priority 1992, dated 1997).
Converted amounts (≈) assume the structure as drawn.

What was measured:
Assay type in all cases: cell-based
[1] = tested on: S. epidermidis ATCC 12228; experiment: MIC by agar dilution, S. epidermidis ATCC 12228; conditions: Staphylococcus epidermidis, ATCC12228, 17 h; S. epidermidis ATCC 12228; agar dilution, Mueller-Hinton agar; read-out: Minimal Inhibitory Concentration (MIC)
Summary of the method: (§1)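 Minimum inhibitory concentrations come from Mueller-Hinton agar plates with two-fold compound steps, inoculated at 10^6 CFU per ml and incubated 17±1 hours at 35°-37° C.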

[2] = tested on: Staph. aureus ATCC 6538P; experiment: MIC by agar dilution, Staph. aureus ATCC 6538P; conditions: Staphylococcus aureus, ATCC6538P, 17 h; Staph. aureus ATCC 6538P; agar dilution, Mueller-Hinton agar; read-out: Minimal Inhibitory Concentration (MIC)
Summary of the method: as §1

[3] = tested on: Ps. aeruginosa NCTC 10490; experiment: MIC by agar dilution, Ps. aeruginosa NCTC 10490; conditions: Pseudomonas aeruginosa, NCTC10490, 17 h, Mueller-Hinton agar, read-out: Minimal Inhibitory Concentration (MIC)
Summary of the method: as §1

[4] = tested on: K. pneumoniae NCTC 9632; experiment: MIC by agar dilution, K. pneumoniae NCTC 9632; conditions: Klebsiella pneumoniae, NCTC9632, 17 h; K. pneumoniae NCTC 9632; agar dilution, Mueller-Hinton agar; read-out: Minimal Inhibitory Concentration (MIC)
Summary of the method: as §1

[5] = tested on: Staph. aureus C-5216; experiment: MIC by agar dilution, Staph. aureus C-5216; conditions: Staphylococcus aureus, C5216, 17 h, Mueller-Hinton agar, read-out: Minimal Inhibitory Concentration (MIC)
Summary of the method: as §1

[6] = tested on: Staph. aureus C-5113; experiment: MIC by agar dilution, Staph. aureus C-5113; conditions: Staphylococcus aureus, C5113, 17 h, Mueller-Hinton agar, read-out: Minimal Inhibitory Concentration (MIC)
Summary of the method: as §1

[7] = tested on: E. coli No. 29; experiment: MIC by agar dilution, E. coli No. 29; conditions: Escherichia coli, 17 h; E. coli No. 29; agar dilution, Mueller-Hinton agar; read-out: Minimal Inhibitory Concentration (MIC)
Summary of the method: as §1

[8] = tested on: Prov. stuartii IFO 12930; experiment: MIC by agar dilution, Prov. stuartii IFO 12930; conditions: Providencia stuartii, IFO12930, 17 h, Mueller-Hinton agar, read-out: Minimal Inhibitory Concentration (MIC)
Summary of the method: as §1

[9] = tested on: Staph. aureus C-57; experiment: MIC by agar dilution, Staph. aureus C-57; conditions: Staphylococcus aureus, C57, 17 h, Mueller-Hinton agar, read-out: Minimal Inhibitory Concentration (MIC)
Summary of the method: as §1

[10] = tested on: Ser. marcescens IFO 12648; experiment: MIC by agar dilution, Ser. marcescens IFO 12648; conditions: Serratia marcescens, IFO12648, 17 h; Ser. marcescens IFO 12648; agar dilution, Mueller-Hinton agar; read-out: Minimal Inhibitory Concentration (MIC)
Summary of the method: as §1

[11] = tested on: B. subtilis ATCC 6633; experiment: MIC by agar dilution, B. subtilis ATCC 6633; conditions: Bacillus subtilis, ATCC6633, 17 h; B. subtilis ATCC 6633; agar dilution, Mueller-Hinton agar; read-out: Minimal Inhibitory Concentration (MIC)
Summary of the method: as §1

[12] = tested on: Ent. cloacae IFO 13535; experiment: MIC by agar dilution, Ent. cloacae IFO 13535; conditions: Enterobacter cloacae, IFO13535, 17 h; Ent. cloacae IFO 13535; agar dilution, Mueller-Hinton agar; read-out: Minimal Inhibitory Concentration (MIC)
Summary of the method: as §1

[13] = tested on: Ent. aerogenes IFO 12979; experiment: MIC by agar dilution, Ent. aerogenes IFO 12979; conditions: Klebsiella aerogenes, IFO12979, 17 h, Mueller-Hinton agar, read-out: Minimal Inhibitory Concentration (MIC)
Summary of the method: as §1

[14] = tested on: M. morganii DY-1; experiment: MIC by agar dilution, M. morganii DY-1; conditions: Morganella morganii, DY1, 17 h; M. morganii DY-1; agar dilution, Mueller-Hinton agar; read-out: Minimal Inhibitory Concentration (MIC)
Summary of the method: as §1

[15] = tested on: P. vulgaris NCTC 8313; experiment: MIC by agar dilution, P. vulgaris NCTC 8313; conditions: Proteus vulgaris, NCTC8313, 17 h; P. vulgaris NCTC 8313; agar dilution, Mueller-Hinton agar; read-out: Minimal Inhibitory Concentration (MIC)
Summary of the method: as §1

[16] = tested on: Ps. aeruginosa ATCC 10145; experiment: MIC by agar dilution, Ps. aeruginosa ATCC 10145; conditions: Pseudomonas aeruginosa, ATCC10145, 17 h, Mueller-Hinton agar, read-out: Minimal Inhibitory Concentration (MIC)
Summary of the method: as §1

[17] = tested on: E. coli DY-1; experiment: MIC by agar dilution, E. coli DY-1; conditions: Escherichia coli, DY1, 17 h; E. coli DY-1; agar dilution, Mueller-Hinton agar; read-out: Minimal Inhibitory Concentration (MIC)
Summary of the method: as §1

[18] = tested on: Staph. aureus Smith; experiment: MIC by agar dilution, Staph. aureus Smith; conditions: Staphylococcus aureus, 17 h, Mueller-Hinton agar, read-out: Minimal Inhibitory Concentration (MIC)
Summary of the method: as §1

[19] = tested on: E. coli NIHJ JC-2; experiment: MIC by agar dilution, E. coli NIHJ JC-2; conditions: Escherichia coli, NIHJJC2, 17 h; E. coli NIHJ JC-2; agar dilution, Mueller-Hinton agar; read-out: Minimal Inhibitory Concentration (MIC)
Summary of the method: as §1

[20] = tested on: Ps. aeruginosa DY-2; experiment: MIC by agar dilution, Ps. aeruginosa DY-2; conditions: Pseudomonas aeruginosa, DY2, 17 h; Ps. aeruginosa DY-2; agar dilution, Mueller-Hinton agar; read-out: Minimal Inhibitory Concentration (MIC)
Summary of the method: as §1

SMILES | MIC [1] | MIC [2] | MIC [3] | MIC [4] | MIC [5] | MIC [6] | MIC [7] | MIC [8] | MIC [9] | MIC [10] | MIC [11] | MIC [12] | MIC [13] | MIC [14] | MIC [15] | MIC [16] | MIC [17] | MIC [18] | MIC [19] | MIC [20]
C#CCON=C(C(=O)NC1C(=O)N2C(C(=O)[O-])=C(C[n+]3ccn4cccc4c3)CSC12)c1csc(N)n1 (stereo not drawn) [Ex. 4, 7-β-[(Z)-2-(2-aminothiazol-4-yl)-2-(propyn-1-oxyimino)acetamido]-3-(pyrrolo[1,2-a]pyrazinium-2-yl)methyl-3-cephem-4-carboxylate] | 0.1 µg/mL (≈ 0.186 µM) | 0.2 µg/mL (≈ 0.372 µM) | 0.78 µg/mL (≈ 1.45 µM) | 0.05 µg/mL (≈ 0.093 µM) | 0.78 µg/mL (≈ 1.45 µM) | 0.39 µg/mL (≈ 0.725 µM) | 0.012 µg/mL (≈ 0.0223 µM) | 0.05 µg/mL (≈ 0.093 µM) | 25 µg/mL (≈ 46.5 µM) | 0.1 µg/mL (≈ 0.186 µM) | 0.78 µg/mL (≈ 1.45 µM) | 0.78 µg/mL (≈ 1.45 µM) | 0.012 µg/mL (≈ 0.0223 µM) | 0.05 µg/mL (≈ 0.093 µM) | 0.012 µg/mL (≈ 0.0223 µM) | 1.56 µg/mL (≈ 2.9 µM) | ≤ 0.006 µg/mL | 0.39 µg/mL (≈ 0.725 µM) | 0.39 µg/mL (≈ 0.725 µM) | 6.25 µg/mL (≈ 11.6 µM)
CCO/N=C(\C(=O)N[C@@H]1C(=O)N2C(C(=O)[O-])=C(C[n+]3ccn4c(Br)ccc4c3C)CS[C@H]12)c1csc(N)n1 [Ex. 42, 7-β-[(Z)-2-(2-aminothiazol-4-yl)-2-ethoxyiminoacetamido]-3-(6-bromo-1-methylpyrrolo[1,2-a]pyrazinium-2-yl)methyl-3-cephem-4-carboxylate] | 0.1 µg/mL (≈ 0.161 µM) | 0.39 µg/mL (≈ 0.629 µM) | 3.13 µg/mL (≈ 5.04 µM) | 0.2 µg/mL (≈ 0.322 µM) | 3.13 µg/mL (≈ 5.04 µM) | 1.56 µg/mL (≈ 2.51 µM) | 0.05 µg/mL (≈ 0.0806 µM) | 0.05 µg/mL (≈ 0.0806 µM) | 25 µg/mL (≈ 40.3 µM) | 0.2 µg/mL (≈ 0.322 µM) | 0.39 µg/mL (≈ 0.629 µM) | 0.78 µg/mL (≈ 1.26 µM) | 0.05 µg/mL (≈ 0.0806 µM) | 0.2 µg/mL (≈ 0.322 µM) | 0.025 µg/mL (≈ 0.0403 µM) | 6.25 µg/mL (≈ 10.1 µM) | 0.025 µg/mL (≈ 0.0403 µM) | 1.56 µg/mL (≈ 2.51 µM) | 0.2 µg/mL (≈ 0.322 µM) | 25 µg/mL (≈ 40.3 µM)
CO/N=C(\C(=O)N[C@@H]1C(=O)N2C(C(=O)[O-])=C(C[n+]3ccn4c(C(C)O)ccc4c3)CS[C@H]12)c1nsc(N)n1 (stereo partly drawn) [Ex. 51, 7-β-[(Z)-2-(5-amino-1,2,4-thiadiazol-3-yl)-2-methoxyiminoacetamido]-3-[6-(1-hydroxyethyl)pyrrolo[1,2-a]-pyrazinium-2-yl]methyl-3cephem-4-carboxylate] | 0.1 µg/mL (≈ 0.179 µM) | 0.78 µg/mL (≈ 1.4 µM) | 0.2 µg/mL (≈ 0.358 µM) | 0.05 µg/mL (≈ 0.0895 µM) | 1.56 µg/mL (≈ 2.79 µM) | 1.56 µg/mL (≈ 2.79 µM) | 0.025 µg/mL (≈ 0.0448 µM) | 0.012 µg/mL (≈ 0.0215 µM) | 50 µg/mL (≈ 89.5 µM) | 0.05 µg/mL (≈ 0.0895 µM) | 0.2 µg/mL (≈ 0.358 µM) | 0.1 µg/mL (≈ 0.179 µM) | 0.025 µg/mL (≈ 0.0448 µM) | 0.1 µg/mL (≈ 0.179 µM) | 0.05 µg/mL (≈ 0.0895 µM) | 1.56 µg/mL (≈ 2.79 µM) | 0.025 µg/mL (≈ 0.0448 µM) | 1.56 µg/mL (≈ 2.79 µM) | 0.025 µg/mL (≈ 0.0448 µM) | 3.13 µg/mL (≈ 5.6 µM)
CON=C(C(=O)NC1C(=O)N2C(C(=O)[O-])=C(C[n+]3ccn4c(C(N)=O)ccc4c3)CSC12)c1csc(N)n1 (stereo not drawn) [Ex. 15, 7-β-[(Z)-2-(2-aminothiazol-4-yl)-2-methoxyiminoacetamido]-3-(6-carbamoylpyrrolo[1,2-a]pyrazinium-2-yl)methyl-3-cephem-4-carboxylate] | 0.025 µg/mL (≈ 0.0449 µM) | 0.2 µg/mL (≈ 0.359 µM) | 0.1 µg/mL (≈ 0.18 µM) | ≤ 0.006 µg/mL | 0.78 µg/mL (≈ 1.4 µM) | 0.78 µg/mL (≈ 1.4 µM) | ≤ 0.006 µg/mL | ≤ 0.006 µg/mL | 12.5 µg/mL (≈ 22.5 µM) | 0.012 µg/mL (≈ 0.0216 µM) | 0.05 µg/mL (≈ 0.0898 µM) | 0.1 µg/mL (≈ 0.18 µM) | ≤ 0.006 µg/mL | ≤ 0.006 µg/mL | 0.012 µg/mL (≈ 0.0216 µM) | 0.39 µg/mL (≈ 0.701 µM) | ≤ 0.006 µg/mL | 0.39 µg/mL (≈ 0.701 µM) | ≤ 0.006 µg/mL | 3.13 µg/mL (≈ 5.62 µM)
